Assay: mn = molality of the nth substance listed, in mol/kg
Details: 100 kPa, Liquid; for mass density: Vibrating tube method; for electrical conductivity: Alternating current cell with electrodes; for viscosity: Falling or rolling sphere viscometry

CCC(=O)OCCN1CCNCC1 [2-(piperazin-1-yl)ethyl propionate] + CO
Details	electrical conductivity, 303.15 K [S/m]	electrical conductivity, 308.15 K [S/m]	mass density, 298.15 K [kg/m3]	mass density, 303.15 K [kg/m3]	viscosity, 303.15 K [mPa·s]	viscosity, 308.15 K [mPa·s]
m1 = 0.05	0.136	0.139	–	785.03	0.542	0.512
m1 = 0.1001	0.224	0.232	–	788.13	0.556	0.523
m1 = 0.2006	0.362	0.374	–	794.26	0.589	0.554
m1 = 0.3003	0.465	0.482	–	800.33	0.627	0.588
m1 = 0.3995	0.547	0.566	–	806.4	0.668	0.625
m1 = 0.5005	0.615	0.641	817.14	812.5	0.713	0.665
m1 = 0.6006	0.672	0.701	823.36	818.75	0.764	0.711
m1 = 0.7007	0.715	0.748	829.58	824.99	0.816	0.758
m1 = 0.8007	0.756	0.792	835.68	831.13	0.881	0.817
m1 = 0.9008	0.785	0.824	841.84	837.3	0.95	0.879
m1 = 1.001	0.813	0.858	847.87	843.36	1.028	–
m1 = 1.2	0.839	0.883	860.2	855.75	1.194	–
m1 = 1.401	0.849	0.892	873.21	868.82	1.425	–
m1 = 1.6	0.837	0.889	885.7	881.35	1.713	–
m1 = 1.801	0.813	0.862	898.85	894.62	2.093	–
m1 = 2	0.766	0.818	911.8	907.8	2.606	–
m1 = 2.203	0.712	0.766	925.82	921.66	3.257	–
m1 = 2.403	0.648	0.703	938.76	934.65	4.233	–
m1 = 2.603	0.571	0.626	951.62	947.56	5.512	–
m1 = 2.803	0.505	0.559	964.72	960.73	7.332	–
m1 = 3.001	–	–	978.3	974.37	10.32	–
m1 = 3.006	0.439	0.483	–	–	–	–

From the NIST ThermoML archive (doi:10.1021/je500380x)
